For 17 compounds, TGI and GI50 results are on record in PubChem BioAssay (NCI).

Values joined by “and” are separate entries in the source; they are usually repeats but may differ in a detail not shown here. Equal values may be shown once.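 Protocol summary: plate cells (96-well), add compound at 5 concentrations, incubate 48 h, interpolate endpoints linearly. Abbreviation: GI50, concentration required for 50% inhibition of growth. TGI: concentration producing complete growth inhibition.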

What all share (assay): NCI tumour cell line growth inhibition, 48 h
The test system of assay [1] is MALME-3M melanoma.
In assay [2] the test system is HS 578T breast.
The test system of assay [3] is SK-MEL-28 melanoma.
Assay [4] deals with HT29 colon.
The subject of assay [5] is K-562 leukemia.
Assay [6] deals with U251 CNS.
In assay [7] the test system is HCT-116 colon.
Assay [8] relates to SK-OV-3 ovarian.
Assay [9] has as its system OVCAR-3 ovarian.
Assay [10] concerns A549 NSCLC.

`C/C(CC(O)(C(F)(F)F)C(F)(F)F)=N\NC(N)=O`: the TGI in [1], in assay [2], in assay [3], in assay [4], in assay [5] and in [6] was > 10 µM in each case. Also, the TGI in assay [7], in assay [8], in [9] and in [10] was > 10 µM in each case.

With `Oc1cc(Cc2ccccc2)c(Cc2ccccc2)cc1O`, the TGI in assay [1], in assay [2], in [3], in [4], in assay [5] and in assay [6] was > 10 µM throughout. Further, the TGI in assay [7], in assay [8], in assay [9] and in [10] was > 10 µM in each case.

Take `O=C(NCC1CC1)c1ccc(-c2cccc(C(=O)NC3CC3)c2)cc1`: the GI50 in [1], in [2], in assay [3], in [4], in assay [5] and in assay [6] was > 25 µM throughout. The GI50 in assay [7], in [8], in assay [9] and in [10] was > 25 µM each time. Also, the TGI in assay [1], in assay [2], in [3], in assay [4], in assay [5] and in [6] was > 25 µM in each case. Moreover, the TGI in assay [7], in assay [8], in assay [9] and in assay [10] was > 25 µM in each case.

Consider `COc1ccc(C2=Nn3c(nnc3-c3cc(Cl)cc(Cl)c3Cl)SC2)cc1`, for which the GI50 in assay [1] is 0.44 µM; in [2], 0.376 µM; in assay [4], 0.336 µM; in assay [5], 0.44 µM; in [6] it was 0.412 µM; in assay [7] it was 0.393 µM. Also, the GI50 was 0.522 µM in assay [8], 0.173 µM in [9] and 0.631 µM in assay [10]. Besides, the TGI is > 50.5 µM in assay [1]; 13.6 µM in [2]; > 100 µM in [3]; > 31.6 µM in assay [5]; 24.7 µM in assay [6]; > 100 µM in [7]. Besides, the TGI in [8] is > 100 µM; in assay [9], 0.772 µM; in [10], > 37.4 µM.

For `CO/N=C(\COc1ccc2c(c1)[nH]c1ccccc12)c1ccc(OC)cc1`, the GI50 in [1] was 9.71 µM; in assay [2], 18.9 µM; in assay [3], 11.8 µM; in assay [4], 4.36 µM; in assay [5], 31 µM; in assay [6] it was 15.2 µM. The GI50 in [7] is 28.3 µM; in assay [8], 34.6 µM; in assay [9] it was 32.9 µM; in [10], 5.29 µM. The TGI is 74.6 µM in assay [1]; > 100 µM in assay [2]; 69.3 µM in assay [3]; > 100 µM in assay [4]; > 100 µM in [5]; > 100 µM in [6]. Also, the TGI in [7] is > 100 µM; in [8], > 100 µM; in assay [9], > 100 µM; in assay [10] it was 25.2 µM.

Regarding `O=C(O)c1nc(NCc2nc3cc(Cl)ccc3o2)n[nH]1`, the GI50 in assay [1], in assay [2], in assay [3], in assay [4], in assay [5] and in assay [6] was > 100 µM each time. Besides, the GI50 in assay [7], in assay [8], in assay [9] and in assay [10] was > 100 µM in each case. Also, the TGI in assay [1], in assay [2], in assay [3], in [4], in assay [5] and in [6] was > 100 µM each time. Further, the TGI in assay [7], in [8], in [9] and in [10] was > 100 µM in each case.

As for `CNC(=S)Nc1ccc(OC)c2ccccc12`, the TGI in assay [1], in assay [2], in assay [3], in assay [4], in [5] and in assay [6] was > 10 µM each time. Moreover, the TGI in [7] is > 10 µM; in assay [8] it was > 10 µM; in assay [9], 6.72 µM; in assay [10] it was > 10 µM.

Consider `O=C(Nc1cccc(Cl)c1)Nn1cnnc1`, for which the GI50 in assay [1], in assay [2], in assay [3], in [4], in assay [5] and in [6] was > 50 µM throughout. In addition, the GI50 in assay [7], in [8], in assay [9] and in assay [10] was > 50 µM in each case. The TGI in assay [1], in [2], in [3], in assay [4], in [5] and in [6] was > 100 µM throughout. Moreover, the TGI in assay [7], in [8], in [9] and in assay [10] was > 100 µM in each case.

In the case of `Cc1ccc(S(=O)(=O)SC/C=C\CSS(=O)(=O)c2ccc(C)cc2)cc1`, the TGI is > 94.9 µM and 43.8 µM in assay [1]; > 100 µM in assay [2]; > 78.8 µM and 35.5 µM in [3]; > 62.8 µM and 39.7 µM in assay [4]; 25.2 µM and 64.9 µM in assay [5]; 66.3 µM and 34.7 µM in [6]. The TGI in assay [7] was 29.7 µM and 41.4 µM; in [8], 98.9 µM and 83.2 µM; in assay [9], 78.8 µM and 56 µM; in [10] it was > 100 µM. Besides, the GI50 in assay [3] is 39.7 µM and 18.8 µM; in assay [4], 6.14 µM and 20.3 µM; in [7], 5.31 µM and 19.9 µM.

On to `CCN1C(=O)N(CC)C2C1NN=c1s/c(=C\c3ccc(Cl)cc3Cl)c(=O)n12` (centres undefined), for which the GI50 in assay [1] is 0.0777 µM; in assay [2] it was 0.0379 µM; in [3] it was 2.48 µM; in assay [4], 0.0329 µM; in [5], 0.0309 µM; in assay [6] it was 0.0365 µM. The GI50 in assay [7] is 0.0317 µM; in assay [8] it was 0.0448 µM; in assay [9], 0.0263 µM; in assay [10], 0.0369 µM. Further, the TGI in assay [1] was > 75 µM; in assay [2] it was > 50.5 µM; in assay [3], > 100 µM; in [4], 12.3 µM; in assay [5], 28 µM; in [6], > 41.3 µM. In addition, the TGI in assay [8] was > 100 µM; in assay [9], 0.0665 µM; in assay [10], > 55.5 µM.

On to `C=C1CCC2C3(C)COC(C)(C)OC3CCC2(C)C1C/C=C1/C(=O)OCC1OC(C)=O` (centres undefined), for which the GI50 in assay [1] is 3.11 µM; in assay [2], 2.75 µM; in assay [3], 2.21 µM; in [4], 1.89 µM; in [5] it was 2.85 µM; in assay [6] it was 2.69 µM. Further, the GI50 is 1.1 µM in assay [7], 12.5 µM in assay [8], 2.47 µM in assay [9] and 3.5 µM in assay [10]. Moreover, the TGI in assay [1] worked out at 10.1 µM; in [2], 9.59 µM; in assay [3] it was 4.94 µM; in assay [4], 4.85 µM; in [5], 23.2 µM; in assay [6] it was 9.31 µM. Also, the TGI in assay [7] was found to be 2.31 µM; in assay [8], 25.7 µM; in assay [9] it was 6.07 µM; in assay [10], 12.8 µM.

For `C=CCc1c(Cl)nc(Cl)nc1Cl`, the TGI in assay [1] worked out at 1.47 µM; in [2] it was 4.14 µM; in assay [3] it was 1.93 µM; in assay [4], 0.805 µM; in [5] it was 0.125 µM; in [6], 1.74 µM. The TGI was determined as 1.18 µM in assay [7], 9.12 µM in assay [8], 0.311 µM in [9] and 5.91 µM in assay [10].

For the compound `CC(CO)Nc1cc(-c2[nH]c3cccnc3c2-c2ccc(F)cc2)ccn1` (centres undefined), the GI50 in assay [1] was 16.9 µM; in assay [2], 16.8 µM; in [3], > 25 µM; in assay [4], 9.77 µM; in assay [5], 23.4 µM; in assay [6], 15.4 µM. In addition, the GI50 in [7] is 13.4 µM; in [8], 15 µM; in assay [9] it was 16.8 µM; in assay [10] it was 8.47 µM. Also, the TGI in [1], in [2], in [3], in [4], in assay [5] and in assay [6] was > 25 µM throughout. Besides, the TGI in [7], in assay [8], in assay [9] and in assay [10] was > 25 µM each time.

For the compound `CCSC1=NC2C(N(CC)C(=O)N2CC)N1/N=C/C=C/c1ccccc1[N+](=O)[O-]` (centres undefined), the GI50 was 0.135 µM in assay [1]; 0.118 µM in assay [2]; 5.83 µM in assay [3]; 0.16 µM in assay [4]; 0.0583 µM in [5]; 0.174 µM in assay [6]. Further, the GI50 in assay [7] was 0.114 µM; in assay [8], 0.329 µM; in assay [9], 0.169 µM; in [10], 0.307 µM. The TGI in assay [1], in assay [2], in [3], in assay [4], in assay [5] and in assay [6] was > 100 µM each time. Besides, the TGI in assay [7], in [8] and in [10] was > 100 µM each time.

On to `O=C1/C(=C/c2ccc([N+](=O)[O-])cc2)CN(C(=O)CCN2CCC(=NO)CC2)C/C1=C\c1ccc([N+](=O)[O-])cc1`, for which the GI50 in [1] is 2.04 µM; in [2], 1.98 µM; in assay [3] it was 1.93 µM; in assay [4], 0.477 µM; in [5], 0.216 µM; in assay [6], 0.509 µM. For the same compound, the GI50 in [7] is 0.552 µM; in assay [8], 5.96 µM; in assay [9], 0.801 µM; in assay [10], 2.85 µM. In addition, the TGI was 6.9 µM in [1]; 9.86 µM in assay [2]; 4.72 µM in [3]; 1.93 µM in assay [4]; > 60.9 µM in assay [5]; 2.03 µM in assay [6]. Further, the TGI worked out at 1.53 µM in assay [7], 17.4 µM in [8], 2.31 µM in assay [9] and 12.4 µM in [10].

For `CCCN1C(=O)NC(=O)C(CC)(N2C(=O)c3c(F)c(F)c(F)c(F)c3C2=O)C1=O` (centres undefined), the GI50 in assay [1] is 2.06 µM; in assay [2], 2.3 µM; in assay [3], 1.71 µM; in assay [4], 1.4 µM; in assay [5] it was 1.73 µM; in assay [6] it was 1.41 µM. Moreover, the GI50 was 1.48 µM in assay [7], 3.96 µM in assay [8], 1.69 µM in [9] and 2.84 µM in assay [10]. Moreover, the TGI worked out at 5.31 µM in [1]; 6.94 µM in assay [2]; 3.22 µM in assay [3]; 3.62 µM in assay [4]; 4.55 µM in assay [5]; 3.76 µM in assay [6]. The TGI came out at 4.93 µM in [7], 13.2 µM in [8], 3.16 µM in assay [9] and 8.45 µM in assay [10].

As to `NC(=O)CNC(=O)[C@@H]1CC(OCCC(=O)O)CN1C(=O)C1CCCN1C(=O)OCc1ccccc1` (some centres undefined), the TGI in assay [1], in [2], in assay [3], in [4], in [5] and in assay [6] was > 100 µM in each case. In addition, the TGI in assay [7], in [8], in [9] and in assay [10] was > 100 µM throughout.
